Experiment [1] relates to Escherichia coli isolate B. In words: Same-sample filtration AST, replicate treated and concurrent reference conditions (Example 3), isolate B. It is filed as cell-based. Conditions: 1 μg/mL ETP, 60 minutes 37° C. On the procedure: Isolate A was susceptible to ertapenem, while isolate B was resistant. The inoculum was small enough that no detectable difference in the sample's optical density at 600 mm (OD600) was detectable before and after inoculation by an Ultrospec 10 spectrophotometer with an analytical sensitivity of 0.01 absorbance units. After an incubation at 37° C., the media became turbid with an OD600 of 0.5 absorbance units after about 2 hours of incubation.
To begin the AST protocol, 23.75 μL of the above 8 bacteria batch culture dilutions was twice added to and mixed with 1.25 μL of water containing either 20 μg/mL or 0 μg/mL of dissolved ertapenem (ETP) antibiotic. As a result, […] at 1 μg/mL were created, and 8 untreated reference conditions were created (see Table 2 below). The […] were incubated at 37° C. for 60 minutes.
After 60 minutes of incubation, the entire volume of each antibiotic exposure was transferred to an individual cellulose acetate filter unit with a 0.2 μm pore size. […]
50 μL of fresh MHB media was spun through the filters after the first centrifugation (above) to wash away residual extracellular nucleic acids present in the fluid wetting the filters. […] In this experiment, the wash fluid was collected and analyzed to learn more about the protocol, but this washing step is not necessary for determining susceptibility of the isolate. […]

In experiment [2] the test system is Escherichia coli isolate. Kind of experiment: Same-sample AST, bulk: filtration, RT-ddPCR of 23S rRNA, percent extracellular (Example 1). Format: cell-based. The conditions noted are these: 1.0 μg/mL ETP, 37° C. 60 minutes; lower bound of 95% Poisson CI of percent extracellular vs threshold (control mean + 2 SD); three replicates. On the procedure:
The inoculum was small enough that no detectable difference in the sample's optical density at 600 mm (OD600) was detectable by a spectrophotometer with a sensitivity of 0.01 absorbance units. After an incubation at 37° C., the media became turbid with an OD600 of 0.26 absorbance units after 2 hours of incubation thus providing a bacteria batch culture.
To begin the AST protocol, 10 μL of the above bacteria batch culture was added to and mixed with 15 μL of Mueller-Hinton Broth (MHB) growth media containing 1.67 μg/mL of dissolved ertapenem (ETP) antibiotic to create a test condition antibiotic exposure with a final ETP concentration of 1.0 μg/mL.
In parallel, 10 μL of the batch culture was added to and mixed with 15 μL of Mueller-Hinton Broth (MHB) growth media containing no ETP to create a control condition antibiotic exposure corresponding to the 1 μg/mL test condition. The two antibiotic exposures were incubated at 37° C. for 60 minutes.
The entire volume of each antibiotic exposure was transferred to an individual cellulose acetate filter with a 0.2 μm pore size. Fluid that passes through the filter, called the “filtrate”, was collected in a clean microcentrifuge tube. The antibiotic exposures were centrifuged at 2200 relative centrifugal force to speed the passage of the antibiotic exposure through the filter and into the collecting vessel. […]

The record followed here is patent US20220282304A1, “SAME-SAMPLE ANTIBIOTIC SUSCEPTIBILITY TEST AND RELATED COMPOSITIONS, METHODS AND SYSTEMS” (CALIFORNIA INSTITUTE OF TECHNOLOGY, priority 2021, published 2022).

`C[C@@H](O)[C@H]1C(=O)N2C(C(=O)O)=C(S[C@@H]3CN[C@H](C(=O)Nc4cccc(C(=O)O)c4)C3)[C@H](C)[C@H]12` [ETP, ertapenem]: the “susceptibility call (threshold: reference mean + 2 SD of fraction extracellular)” value in experiment [1] (alternative analysis) was “resistant”. In addition, the “susceptibility call (t-test treated vs untreated percent extracellular)” value in experiment [1] (ddPCR 23S rRNA) is on record as “resistant”. For the same compound, in experiment [2], the susceptibility call is “susceptible”.
